The source of these data is patent US20250127774A1, “COMPOUNDS FOR LABELLING NUCLEIC ACID AND USES THEREOF” (THE ROYAL INSTITUTION FOR THE ADVANCEMENT OF …, priority 2022, published 2025).

The subject of series [1] is Jurkat cells. Kind of series: Resazurin single toxicity assay. Type of series: cell-based. The following applies: Homo sapiens, compound alone. The procedure:
(§1) Resazurin assays were carried out to test the effectiveness of VdU, VdA and PINK alone in MV4-11 and Jurkat. The resazurin reduction assay is a colorimetric assay which allows to determine a cell's viability based on its metabolic activities.^26 When the cells are alive, the resazurin gets reduced by NADH into its resorufin form by cellular respiration, which is pink and highly fluorescent.^26 When the cells are dead or their metabolisms are impaired, the resazurin remains in its oxidized form, which is blue and has low fluorescence.^26 The cells can then be imaged using a spectrometer to determine how viable they are after each treatment.
(§2) Resazurin Single toxicity assay. MV4-11 and Jurkat cells were seeded in 96-well plates at a density of 20 000 cells/well, in triplicates. The cells were treated with each nucleoside (VdU/VdA) alone diluted in fresh media in 1:4 serial dilutions (˜0.01% DMSO) at concentrations of 1000-0 μM. The cells were treated with PINK alone diluted in fresh media in 1:2 serial dilutions (˜1% DMSO) at concentration of 100-0 μM. The cells were then incubated for 24 h and 72h. 10 μL of 870 μM resazurin was added per well, and incubated for 2-5 hours. After incubation, the fluorescence intensity at 590 nm (excitation=560 nm) was measured using a SpectraMax M5 plate reader.
In general terms: The colour change of resazurin is a common sign of viable cells or microbes.

Series [2] has as its system MV4-11 cells. Briefly: Resazurin single toxicity assay. Format: cell-based. Particulars: Homo sapiens, compound alone. The procedure:
as §1, §2

In series [3] the test system is MOLM-13 cells. Briefly: Cell counting assay (Trypan Blue). Type of series: cell-based, human. Particulars: MOLM-13, 5 μM nucleoside, 1 μM PINK. The procedure: To confirm the cytotoxicity results obtained from the resazurin assays, a cell counting assay was conducted using Trypan Blue. It is an azo dye allows to discriminate between viable cells and dead cells, since dead cells will take in the dye, while viable cells will remain white. 28 From the resazurin assays, and after some optimization based on cell sensitivity to the vinyl-nucleosides, it was determined that […] and 5 μM of vinyl-nucleosides alone and in combination with 1 μM of PINK were two interesting concentrations to explore in Jurkat, MV4-11, and MOLM-13 cells. Cells were incubated with 5 μM or 10 μM of each nucleoside overnight (Day 0), and 1 μM of PINK was added for the combinations and PINK alone 24h post nucleoside incubation (Day 1). The cells were counted every 24h.
Cell Counting Assay. Jurkat, MV4-11 and MOLM-13 cells were seeded in 12-well plates at a density of 500 000 cells/mL, 175 000 cells/mL and 375 000 cells/mL, respectively, in duplicates. The cells were incubated overnight in fresh media containing 10 μM (Jurkat) or 5 μM (MV4-11 and MOLM-13) of each nucleoside (˜0.01% DMSO). 24h post nucleoside addition, 1 μM of PINK (˜0.01% DMSO) were added to the respective wells and incubated for 24 h. The cells were counted using a cell counter (BIO RAD TC20) to determine the percentage of viable cells and the cell concentration. The cells were counted every 24h using Trypan Blue in a 1:1 ratio.

Series [4] deals with Jurkat cells. Briefly: Resazurin combination toxicity assay. Format: cell-based. The following applies: Homo sapiens. On the procedure: (§3) From the single toxicity experiment, it was determined that the optimal subtoxic concentration of PINK to be used for the combination toxicity assays would be 1 μM. To test how effective the vinyl-nucleosides (VdU/VdA) in combination with PINK are at killing the cells compared to the vinyl-nucleosides alone, another resazurin reduction assay was carried out.
(§4) To determine if it is possible to treat the leukemia cells with the vinyl-nucleosides and PINK simultaneously, instead of adding them sequentially, another resazurin reduction assay using the same concentrations of each compound as in the previous combination experiment was carried out, where instead the vinyl-nucleosides and PINK were added on the same day instead of on two consecutive days.
(§5) Resazurin Combination toxicity assays. MV4-11, MOLM-13 and Jurkat cells were seeded in 96-well plates at a density of 20 000 cells/well, 25 000 cells/well and 30 000 cells/well, respectively, in triplicates. For the sequential addition, the cells were first treated with the nucleosides (VdU/VdA) diluted in fresh media in 1:4 serial dilutions (˜0.01% DMSO) at concentrations of 500-0 μM, and incubated overnight. 24h post nucleoside addition, the cells were treated with 1 μM PINK diluted in fresh media (˜1% DMSO), and incubated for 24-72h. The cells were treated with resazurin, incubated and measured, as described above. For the simultaneous addition, the cells were treated with nucleosides and PINK on the same day at the same concentrations as describes above, and incubated for 24-72h.

Series [5] relates to MV4-11 cells. Kind of series: Resazurin combination toxicity assay. Type of series: cell-based. The following applies: Homo sapiens. On the procedure: as §3, §4, §5
The test system of series [6] is MV4-11 and Jurkat. Briefly: Resazurin single toxicity assay, summary over both cell lines. Type of series: cell-based. Particulars: Homo sapiens, after 24 h and 72h, read-out: IC50 summarised over both cell lines. On the procedure: as §1
Overall, VdU presented itself as a good candidate for the combination therapy with PINK due to its low toxicity in the two leukemia cell lines.
as §2

In series [7] the test system is MOLM-13 cells. Kind of series: Resazurin combination toxicity assay. Format: cell-based, human. The following applies: variable VdU/VdA alone or with 1 μM PINK added 24 h post nucleoside addition, read-out: IC50 value (48 h) for sequential addition. The procedure: as §3, §5
Series [8] can be described thus: Photophysical measurements (quantum yield) of PINK and PINK-VdU-ox. Type of series: physicochemical. Particulars: excitation 488 nm, Rhodamine 6G standard; PINK in aqueous and aprotic solvents, 6 depending on the solvent used. On the procedure:
PINK (4) undergoes a highly fluorogenic and regioselective IEDDA reaction with VdU (5) to give “PINK-VdU-ox” (6) as a single isomer in a 76% isolated yield after 7d at 60° C. (Scheme 1). The slow rate of this non-templated reaction (Kapp=0.01 M^−1 s^−1, FIG. 5) is due to the combination of an unstrained terminal alkene and unactivated tetrazine.^[49] Over the course of the reaction, a ˜100-fold increase in fluorescence was observed (FIG. 3, c). With a quantum yield (φF)<0.2%, PINK (4) is essentially non-fluorescent in both aqueous and aprotic solvents (FIG. 6).
Highly viscous solvents, including glycerol and polyethylene glycol (PEG 200) induced higher fluorescence of 6, likely by restricting bond rotation and thus suppressing formation of a non-emissive, twisted intramolecular charge transfer (TICT) state.^[50]
Photophysical Measurements. Stock solutions (1-10 mM) of investigated compounds were prepared in DMSO and stored at −20° C. DMSO concentrations were less than 1% after dilution into the respective solvent/aqueous buffer. Measurements were collected on a SpectraMax M5 plate reader (Molecular Devices, Sunnyvale, CA, USA) in 1 cm path-length quartz cuvettes. Quantum yields were obtained by excitation at 488 nm using Rhodamine 6G ((=0.94) in EtOH (n=1.3624) as a fluorescent standard.^[1] Quantum yields were calculated using the equation I: […]

Series [9] deals with Hela cells. Kind of series: Pulse-chase labeling with EdU. Format: cell-based. Particulars: 20 μM VdU 16 h, 1 μM PINK 4 h, 10 μM EdU 4 h. On the procedure: To investigate the potential impact of VdU-PINK labeling on subsequent DNA synthesis, a pulse-chase experiment was performed with 5-ethynyl-2′-deoxyuridine (EdU) (FIG. 14, a). Hela cells were grown in cell media containing 20 μM VdU for 16 h, aspirated, treated with 1 μM PINK for 4 h, aspirated and treated with 10 μM EdU for 4 h. After fixation and DNA denaturation, cells were stained with AF488-azide (488 nm laser; emission 495-540 nm), and total cellular DNA was counterstained with Hoechst 33342 (405 nm laser; emission 410-480 nm). The “No VdU” cells were incubated with 1 μM PINK but not VdU. PINK+ and EdU+ “double positive” cells were observed as having co-localized nuclear staining. […] Therefore, VdU and PINK were used to track DNA synthesis and cellular division using live-cell, time-lapsed imaging. For optimal live-cell visualization, cells were incubated with 100 µM VdU for 23 h and subsequently labeled with 1 μM PINK for 4 h prior to imaging, allowing for the recording of full mitotic cycles over 2.5 hours (FIG. 14, b). Live cell images were acquired using a confocal microscope equipped with a stage-top incubator at 37° C. and at 5% CO2.
Pulse-Chase Labeling. In each well of a 24-well plate, one 10 mm diameter cover slide was placed. Hela cells were seeded at 1.2×10^5 cells per mL and allowed to settle overnight (22 h). […]

Series [10] in a line: Photophysical properties of AO-495-tet-py before and after reaction with 5-norbornene-2 methanol. Format: physicochemical. The following applies: for φ: Rhodamine 6G standard; for λmax(Fluor.): excitation at 488 nm. The procedure:
The absorbance and fluorescence intensity (excitation at 488 nm) of AO-495-TET-py in different solvents (water, PBS and acetonitrile) was measured in a quartz cuvette (light path 1 cm) using a SpectraMax M5 plate reader (Molecular Devices, Sunnyvale, CA, USA). For AO-495-tet-py, samples for photophysical characterization were prepared directly from stock solution (10 mM in DMSO) by gradient dilution. For reaction of AO-495-tet-py with 5-norbornene-2 methanol, 20 μL AO-495-tet-py stock solution (in DMSO) was mixed with 2 μL 5-norbornene-2 methanol (80× excess) in room temperature for 24 h to ensure full conversion. 3 μL of the reaction mixture was diluted in to the indicated solvent to make a […] solution for following photophysical characterization. Rhodamine 6G in ethanol was used as fluorescence standard (φ=0.94).

Where [11] appears, read: 48 h, variable VdU/VdA alone or with 1 μM PINK added on the same day, read-out: IC50 value (48 h) for simultaneous addition.
[12] abbreviates: variable VdU/VdA alone or with 1 μM PINK added 24 h post nucleoside addition, read-out: IC50 value (48 h) for sequential addition.

Molecules are shown by their SMILES. Structures can show the parent of a compound that is named as a salt. Where two headings read alike, the source gives them in different places.

Usually IC50 stands for the point on the concentration scale where inhibition reaches its midpoint.

Regarding `C=Cc1cn([C@H]2C[C@H](O)[C@@H](CO)O2)c2ncnc(N)c12` [VdA, 7-vinyl-7-deaza-2′-deoxyadenosine], the 50% inhibitory concentration (IC50) in [1] (24 h incubation, read-out: IC50 value (24 h)) amounted to 68 µM; in series [1] (72 h incubation, read-out: IC50 value (72 h)) it was 46 µM; in series [2] (MV4-11, 24 h incubation, read-out: IC50 value (24 h)) it was 32 µM; in [2] (MV4-11, 72 h incubation, read-out: IC50 value (72 h)), 58 µM; in series [4] (setting [11]), 72 µM; in series [4] (setting [12]), 46 µM. Moreover, the IC50 in series [5] (setting [11]) is 37 µM; in series [5] (setting [12]), 25 µM; in [6], about 50 µM; in [7] (Homo sapiens, MOLM-13, MOLM-13), 3 µM; in [7] (MOLM-13), 2.6 µM. Moreover, the “cell concentration (cell growth)” value in series [3] was “seem to inhibit cell growth”.

Consider `Cc1cc(-c2cn([C@H]3C[C@H](O)[C@@H](CO)O3)c(=O)[nH]c2=O)c(-c2ccc3cc4ccc(N(C)C)cc4nc3c2)nn1` [PINK-VdU-ox], for which the “quantum yield (φF)” value in series [8] is 3.5-19%. Besides, in series [9], the “impact of VdU-PINK labeling on subsequent DNA synthesis / cell cycle” value is “did not cause cell cycle arrest”.

For `CN(C)c1ccc2cc3ccc(N(C)C)cc3[n+](CCCc3nnc(-c4ccccn4)nn3)c2c1` [AO-495-tet-py, (10-(6-(pyridin-2-yl)-1,2,4,5-tetrazin-3-yl)propyl)-3,6-bis(dimethylamino)acridinium trifluoroacetate)], the results for the “λmax(Abs)” value in series [10] (MeCN), in [10] (PBS) and in [10] (Water) were 498 nm, 500 nm and 500 nm, respectively. The φ in series [10] (MeCN) amounted to 0.0075; in series [10] (PBS) it was 0.0148; in series [10] (Water), 0.0063. Further, the “λmax(Fluor.)” value in series [10] (MeCN), in series [10] (PBS) and in series [10] (Water) was 525 nm throughout.
